Experimental data reported in PubChem BioAssay (NCI).
Several values for one entry are separate records, joined by “and”; a condition that tells them apart may be missing. Identical values can stand only once.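 In this assay, cells in 96-well plates receive the compound at five concentrations for 48 hours. Endpoints are linearly interpolated between the surrounding concentrations. Abbreviation: GI50, concentration required for 50% inhibition of growth. The concentration for full growth arrest is given as TGI.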

Legend:
Experiment in all cases: NCI tumour cell line growth inhibition, 48 h
SF-268 CNS = test system: SF-268 CNS
NCI-H460 lung = test system: NCI-H460 lung
M14 melanoma = test system: M14 melanoma
SR leukemia = test system: SR leukemia
MDA-MB-435 = test system: MDA-MB-435
SK-MEL-5 melanoma = test system: SK-MEL-5 melanoma
SK-MEL-28 melanoma = test system: SK-MEL-28 melanoma
HS 578T breast = test system: HS 578T breast
CAKI-1 renal = test system: CAKI-1 renal
HOP-92 NSCLC = test system: HOP-92 NSCLC

SMILES	TGI (SF-268 CNS)	TGI (NCI-H460 lung)	TGI (M14 melanoma)	TGI (SR leukemia)	TGI (MDA-MB-435)	TGI (SK-MEL-5 melanoma)	TGI (SK-MEL-28 melanoma)	TGI (HS 578T breast)	TGI (CAKI-1 renal)	TGI (HOP-92 NSCLC)	GI50 (SF-268 CNS) [µM]	GI50 (NCI-H460 lung) [µM]	GI50 (M14 melanoma) [µM]	GI50 (SR leukemia) [µM]	GI50 (MDA-MB-435) [µM]	GI50 (SK-MEL-5 melanoma) [µM]	GI50 (SK-MEL-28 melanoma) [µM]	GI50 (CAKI-1 renal) [µM]	GI50 (HOP-92 NSCLC) [µM]	GI50 (HS 578T breast) [µM]
CC(C)(C)c1ccc(O)c(Br)c1	> 100 µM	> 100 µM	> 100 µM	> 100 µM	> 100 µM	> 100 µM	> 100 µM	> 100 µM	–	–	–	–	–	–	–	–	–	–	–	–
CC(C)(C)OC(=O)N1C(C2=COc3ccccc3O2)=COc2cccnc21	3.93 µM	3.67 µM	3.65 µM	5.9 µM	3.67 µM	3.17 µM	3.47 µM	19.1 µM	6.82 µM	3.9 µM	–	–	–	–	–	–	–	–	–	–
CC(Br)C(=O)c1ccc2cc(Br)c3ccccc3c2c1 (stereo unspecified)	32.4 µM	30.9 µM	31 µM	21.2 µM	29.9 µM	27.3 µM	34 µM	62.9 µM	30.1 µM	30.8 µM	–	–	–	–	–	–	–	–	–	–
Cc1cc(O)c2c(c1O)C(=O)c1c(O)ccc(O)c1C2=O	> 100 µM	> 100 µM	> 100 µM	> 100 µM	> 100 µM	> 100 µM	–	> 100 µM	> 100 µM	> 100 µM	–	–	–	–	–	–	–	–	–	–
O=P(O)(O)OP(=O)(O)O	> 100 µM	> 100 µM	> 100 µM	> 100 µM	> 100 µM	> 100 µM	> 100 µM	> 100 µM	> 100 µM	> 100 µM	–	–	–	–	–	–	–	–	–	–
COc1cccc(/C=N/[N-]C(N)=O)c1[O-].[Cu+2].[OH3+].c1cnc2c(c1)ccc1cccnc12	60.7 µM	79.9 µM	28.8 µM	> 100 µM	–	16.1 µM	29.7 µM	–	33.9 µM	18.2 µM	–	–	–	–	–	–	–	–	–	–
O=S1c2ccccc2N=C(c2ccc3ccccc3c2)CC1c1ccccc1 (stereo unspecified)	37.2 µM	41 µM	> 100 µM	63.8 µM	–	> 100 µM	> 100 µM	–	> 100 µM	> 100 µM	–	–	–	–	–	–	–	–	–	–
O=c1oc2c(ccc3occc32)c(N2CCCCC2)c1-c1ccccc1	> 100 µM	> 100 µM	–	–	–	> 100 µM	> 100 µM	–	–	> 100 µM	–	–	–	–	–	–	–	–	–	–
C[C@H](Nc1ccc(C#N)n(C)c1=O)c1cc2cc(Cl)ccc2[nH]c1=O	> 100 µM	> 100 µM	> 100 µM	> 100 µM	88.7 µM	29.1 µM	> 100 µM	> 100 µM	> 100 µM	37.3 µM	22.7	32.8	23.7	27.7	28.6	15.6	28.5	19.6	2.8	13.7
Cc1cc(N2CCOCC2)nc(N(CCCNc2ccnc3cc(Cl)ccc23)Cc2ccc3c(c2)OCO3)n1	–	2.99 µM	2.73 µM	0.593 µM	–	2.88 µM	–	4.61 µM	–	3.98 µM	–	1.45	1.4	0.186	–	1.54	–	–	1.56	1.97
CCN(CC)/[N+]([O-])=N/OC	> 100 µM	> 100 µM	> 100 µM	> 100 µM	–	> 100 µM	> 100 µM	–	–	> 100 µM	–	–	–	–	–	–	–	–	–	–
COC1OC(C(=O)CP(=O)(OC)OC)C(OCc2ccccc2)C(OCc2ccccc2)C1OCc1ccccc1 (stereo unspecified)	37.9 µM and 33.5 µM	31.1 µM and 29.4 µM	28.8 µM and 30.4 µM	39.1 µM and 65.7 µM	31.8 µM and 35.9 µM	28.6 µM and 28.7 µM	40 µM and 33.2 µM	63.4 µM and 74.8 µM	36 µM and 36.7 µM	37.1 µM and 34.7 µM	–	–	–	–	–	–	–	–	–	–
O=C(CSc1nc2ccc(Cl)cc2c(=O)n1-c1ccccc1)N=Nc1c(O)[nH]c2ccc(F)cc12	8.83 µM	9.77 µM	11 µM	–	5.69 µM	10.3 µM	11.3 µM	> 27 µM	11.6 µM	8.51 µM	–	–	–	–	–	–	–	–	–	–
CCCCCCOC(=O)C(N)Cc1ccc(OC)cc1 (stereo unspecified)	> 100 µM	> 100 µM	> 100 µM	> 100 µM	> 100 µM	> 100 µM	> 100 µM	> 100 µM	> 100 µM	> 100 µM	–	–	–	–	–	–	–	–	–	–
C/C(=C\CNc1ncnc2nc(Cl)[nH]c12)CO	> 100 µM	> 100 µM	> 100 µM	> 100 µM	> 100 µM	> 100 µM	> 100 µM	> 100 µM	> 100 µM	> 100 µM	–	–	–	–	–	–	–	–	–	–
O=CC(O)C(O)C(O)COc1cc(CO)cc2c1C(=O)c1ccccc1C2=O (stereo unspecified)	> 100 µM	> 100 µM	> 100 µM	> 100 µM	–	> 100 µM	> 100 µM	–	> 100 µM	> 100 µM	–	–	–	–	–	–	–	–	–	–
COC(=N)C(C)C	> 100 µM	> 100 µM	> 100 µM	> 100 µM	–	> 100 µM	> 100 µM	–	> 100 µM	> 100 µM	–	–	–	–	–	–	–	–	–	–
CC(C)c1ccc2c(c1)[C@@]1(C)CC[C@H](C)C(C)(C)C1CC2 (stereo partly specified)	36 µM	36.9 µM	34.8 µM	67.5 µM	31.3 µM	41.4 µM	31.6 µM	47.4 µM	50.6 µM	36.3 µM	–	–	–	–	–	–	–	–	–	–
Clc1ccc(NCc2nnc(COc3ccc(OCc4nnc(CNc5ccc(Cl)cc5)o4)c(Cl)c3)o2)cc1	> 100 µM	> 100 µM	> 100 µM	13.6 µM	> 100 µM	53.6 µM	> 100 µM	> 100 µM	> 100 µM	83.5 µM	–	–	–	–	–	–	–	–	–	–
NCCCCN	> 100 µM	> 100 µM	> 100 µM	> 100 µM	31.4 µM	> 100 µM	> 100 µM	–	30.2 µM	> 100 µM	–	–	–	–	–	–	–	–	–	–
CN(C)C/C=C(/c1ccc(Br)cc1)c1cccnc1	> 100 µM	> 100 µM	37.2 µM	> 100 µM	> 100 µM	45.5 µM	34.1 µM	> 100 µM	> 100 µM	> 100 µM	–	–	–	–	–	–	–	–	–	–
